# Test results: US20070141635A1, “Novel translocation assay” (priority 2003, published 2007)
# Columns and labels:
# [1] = tested on: GLUT4; settings: cited from earlier work
# [2] = tested on: GLUT1; settings: Perini et al., Diabetes 53:41-52, 2004; cited from earlier work
# [3] = tested on: 3T3-L1 adipocytes expressing HA-GLUT4 WT; assay: Continuous anti-HA antibody uptake (GLUT4 recycling) experiment; assay type: cell-based
# Procedure: For continuous antibody uptake experiments, cells were incubated for 20 min with or without insulin, whereafter anti-HA (50 μg/ml) or non-relevant antibody was added. Cells that were used to determine the total amount of HA-GLUT4 were not incubated with antibody during this 37° C. incubation. After incubation, the cells were fixed and quenched as described above, and incubated for 20 min with 5% NSS and 0.1% saponin. Cells that were used to determine the total cellular amount of HA-GLUT4 were incubated for 60 min with anti-HA antibody or control antibody in PBS containing 2% NSS. All other cells were incubated with 2% NSS without antibody. Subsequently, the cells were incubated with ALEXA488-conjugated goat-anti-mouse antibody and ALEXA594-conjugated WGA, washed and analysed. The amount of specific anti-HA uptake was expressed as a percentage of total cellular immuno-reactive HA-GLUT4.
# To analyze the exchange of GLUT4 with the cell surface under steady state conditions, studies were performed in which live cells were incubated with anti-HA antibody at 37° C. (FIG. 5). […] 3T3-L1 adipocytes expressing HA-GLUT4 WT were stimulated for 2 h with 200 nM insulin in the presence of anti-HA antibody, washed extensively, incubated for 2 h without insulin and anti-HA, and incubated for a further 20 min in the absence (FIG. 5C) or presence (FIG. 5D) of 200 nM insulin.
# For quantification of anti-HA antibody uptake, cells were preincubated for 20 min in the presence or absence of insulin after which anti-HA antibody or control antibody was added for various times (FIG. 5E). Antibody uptake was determined by labeling cells with fluorescent secondary antibody after fixation. Antibody uptake was expressed as a percentage of post-fixation anti-HA labeling.
# To study this non-recycling GLUT4 pool in adipocytes, 3T3-L1 adipocytes expressing HA-GLUT4 WT were incubated at 37° C. in the continuous presence of anti-HA antibody. Cells were incubated with or without 200 nM insulin for 20 min, after which anti-HA antibody was added in the continued presence or absence of insulin. Cells were incubated further for up to 180 min, fixed, permeablilized, and incubated with fluorescent secondary antibody. The level of anti-HA antibody taken up by the cells was then expressed as a percentage of total post-fixation anti-HA labeling of permeablilized cells.
# [4] = tested on: 3T3-L1 adipocytes expressing HA-GLUT4 WT; assay: Inducing GLUT4 translocation with insulin followed by sucrose; assay type: cell-based; settings: 0.3 or 0.6M sucrose for 2 hours after 20 minutes 200 nM insulin; serum free
# Procedure: 3T3-L1 adipocytes expressing HA-GLUT4 WT were serum starved for 2 hours at 37° C. Following 20 minutes insulin stimulation with 200 nM insulin, cells were incubated for additional 2 hours in serum free medium supplemented with 0.2% BSA and 0.3 or 0.6M sucrose. After post-fixation anti-HA immunolabeling the level of cell surface HA-GLUT4 levels was determined as a percentage of total HA-GLUT4 detected after cell lysis. […] Furthermore, increasing concentrations of sucrose induce more GLUT4 to translocate to the plasma membrane in the presence of reduced levels of insulin.
# [5] = tested on: 3T3-L1 fibroblasts expressing HA-tagged GLUT4; assay: Fluorescence-based HA-GLUT4 translocation assay in fibroblasts; assay type: cell-based
# [6] = tested on: HA-GLUT4-expressing 3T3-L1 adipocytes; assay: Fluorescence-based HA-GLUT4 translocation assay (GLUT4 at plasma membrane as percentage of total) in adipocytes; assay type: cell-based
# Procedure: Retrovirally-transduced fibroblasts expressing HA-tagged GLUT 4 or a mutant therof were differentiated into adipocytes essentially as described above. These adipocytes were then subcultured for 30 hours. Insulin was then added at different time points, after which the cells were fixed in 3% formaldehyde. After washing and quenching with 50 mM glycine, cells were incubated for 20 min with 5% normal swine serum (NSS) in the absence or presence of 0.1% saponin to analyse the level of GLUT4 at the plasma membrane (PM) or the total cellular GLUT4 content, respectively. Cells were incubated for 60 min with a saturating concentration of either an antibody directed against the HA tag or a control non-relevant antibody (mouse IgG MOPC21) in PBS containing 2% NSS. After extensive washing, the cells were incubated for 20 min with 5% NSS in the presence or absence of 0.1% saponin to permeabilize all cells. Cells were incubated for 60 min with saturating concentrations of ALEXA488-conjugated goat-anti-mouse antibody (20 μg/ml) and ALEXA594-conjugated WGA (10 μg/ml) in PBS containing 2% NSS. After washing, fluorescence ([…]) was measured using the bottom-reading mode in a fluorescence microtiter plate reader (FLUOstar Galaxy, BMG Labtechnologies, Offenburg, Germany). The percentage of GLUT4 at the PM was calculated for each condition. ALEXA594-WGA fluorescence was used to correct for variation in cell density in each well.
# To determine the extent of insulin-induced GLUT4 translocation using the assay described supra, HA-GLUT4-expressing 3T3-L1 adipocytes grown in 96 well plates were incubated for 2 h in the absence of serum, whereafter 200 nM insulin was added at various time points and cell surface levels of HA-GLUT4 were analysed by indirect immunofluorescence labeling (FIG. 2B). Saturating levels of anti-HA and secondary antibodies were used to ensure that substantially all HA-GLUT4 molecules were labeled. A non-relevant antibody was used at the same concentration to determine the non-specific binding of the anti-HA antibody. Insulin stimulated the appearance of HA-GLUT4 at the PM with a half-time of about 2.5 min reaching a plateau by 12 min which was maintained for at least 60 min. No specific anti-HA labeling was detected in non-infected cells (FIG. 2A).
# [7] = tested on: HA-GLUT4 expressing 3T3-L1 adipocytes; assay: Model of insulin resistance (chronic insulin stimulation, then acute insulin); assay type: cell-based; settings: for level of GLUT4 at the plasma membrane after chronic insulin: FIG. 12A
# Procedure: 3T3-L1 adipocytes retrovirally infected with GLUT4 (described in Example 1) were incubated 24 hours or 48 hours either with 600 nM insulin or with medium alone. After this chronic insulin stimulation (as indicated in FIG. 10) at 37° C. in a CO2 incubator, cells were washed and 200 nM insulin was added for additional 10 or 30 minutes. Cell surface levels of HA-GLUT4 were measured using the fluorescence based assay described supra and expressed as a percentage of total HA-GLUT4 detected in the cell. The experiment was also performed with the HA-GLUT4 TAIL mutant
# HA-GLUT4 expressing 3T3-L1 adipocytes were grown in 96 well plates, incubated for 2 hours or overnight in medium supplemented with 10% fetal calf serum or no serum. 200 nM insulin in case of acute stimulation and 600 nM insulin in case of chronic stimulation have been used. After overnight stimulation cells were washed and 200 nM fresh insulin was added for 10 or 30 mln.
# [8] = tested on: 3T3-L1 adipocytes expressing HA-GLUT4; assay: Single cycle GLUT4 internalization experiment; assay type: cell-based
# Procedure: For single cycle internalization experiments cells were stimulated for 20 min with 200 nM insulin after starvation and washed on ice with ice-cold DMEM containing 20 mM HEPES pH 7.4 and 0.2% BSA. Cells were incubated with 100 nM wortmannin or 200 nM insulin and either anti-HA (25 μg/ml) or non-relevant antibody (MOPC21) in DMEM/HEPES/BSA for 1 h on ice. Wortmanin was added to abolish insulin signaling. […] Cells were washed extensively, then either 100 nM wortmanin or 200 nM insulin in DMEM/HEPES/BSA was added. The plate was then transferred to 37° C. and at different times, formaldehyde was added to the wells to a concentration of 3%. After 5 min the formaldehyde was washed away and residual amounts were quenched. The cells were incubated for 20 min with 5% NSS in the absence of saponin, labeled with ALEXA488-conjugated goat-anti-mouse antibody and ALEXA594-conjugated WGA, washed and analysed as described above.
# GLUT4 WT molecules that were labeled with anti-HA antibody on ice were rapidly cleared from the cell surface as indicated by the disappearance of GLUT4 at early time points after transfer of the cells from ice to 37° C. (FIG. 4). After approximately 5 min the level of GLUT4 at the PM reached steady state in the presence but not in the absence of insulin, indicating recycling of GLUT4 back to the PM in insulin-stimulated cells. […]
compound,measurement,setting,value
"margatoxin (TIINVKCTSPKQCLPPCKAQFGQSAGAKCMNGKCKCYPH; UniProt P40755 1-39, looked up)",effect on level of GLUT4 translocated to the plasma membrane,"[1]; suppression of Kv1.3 activity, Xu et al, Proc Natl Acad Sci USA. 101:3112-3117, 2004",increase the level of GLUT4 translocated to the plasma membrane
"C[C@]12CC[C@H](O)CC1=CC[C@@H]1[C@@H]2CC[C@]2(C)C(=O)CC[C@@H]12 [DHEA, Dehydroepiandrosterone]",effect on levels of GLUT1 at the plasma membrane,[2],enhance levels of GLUT1 at the plasma membrane
C[C@@H]1C[C@@H]([C@H](O)CC2CC(=O)NC(=O)C2)C(=O)[C@@H](C)C1 [cycloheximide],GLUT4 that could not be labeled during antibody uptake,"[3]; 10 mg/ml cycloheximide for 2 h prior to the addition of antibody, FIG. 6F",30%
"CO[C@@H]1C[C@@H](C[C@H]2CC[C@H](C)[C@H]([C@@H](C)C(=O)O)O2)O[C@]2(O[C@](C)([C@H]3CC[C@@](C)([C@@H]4O[C@@H]([C@H]5O[C@@](O)(CO)[C@H](C)C[C@@H]5C)C[C@@H]4C)O3)C[C@H]2C)[C@@H]1C [Nigericin, nigericin]",effect on insulin mediated GLUT4 translocation,"[1]; Chu et al., J Cell Biochem. 2002;85:83-91",inhibit insulin mediated GLUT4 translocation
OC[C@H]1O[C@@](CO)(O[C@H]2O[C@H](CO)[C@@H](O)[C@H](O)[C@H]2O)[C@@H](O)[C@@H]1O [sucrose],level of HA-GLUT4 translocated to the plasma membrane,[4],dramatically increases
insulin,time to maximum level of surface GLUT4,[5]; followed by rapid reduction,6 min
same,increase in surface GLUT4 above non-stimulated cells,[5]; maximum level,5 fold
same,time for which plateau of HA-GLUT4 at the PM was maintained,[6]; 200 nM insulin,at least 60 min
same,time to plateau of HA-GLUT4 at the PM,[6]; 200 nM insulin after 2 h in the absence of serum,≤ 12 min
same,half-time of appearance of HA-GLUT4 at the PM,"[6]; 200 nM insulin after 2 h in the absence of serum, 96 well plates",about 2.5 min
same,effect of long-term insulin treatment on cell surface HA-GLUT4 levels,"[6]; 200 nM insulin for up to 3 hours, FIG. 6H",did not drastically down-regulate cell surface GLUT4 levels
same,level of GLUT4 at the PM as percentage of total specific fluorescence,"[6]; 200 nM insulin, basal value 4%",34%
same,increase in cell surface GLUT4 levels in response to insulin stimulation,"[6]; adipocytes, 200 nM insulin",~8 fold
same,levels of GLUT4 translocation after chronic insulin,"[7]; 600 nM insulin 24 or 48 h in the absence of serum (-serum or KRP), then 200 nM insulin",little more than basal levels
same,level of GLUT4 at the plasma membrane after chronic insulin,[7]; 600 nM insulin 24 h in the presence of serum,dramatically increased
same,level of GLUT4 at the plasma membrane after chronic insulin,[7]; 600 nM insulin 48 h in the presence of serum,suppressed
same,effect on GLUT4 internalization rate,"[8]; 200 nM insulin versus 100 nM wortmannin (basal), GLUT4 WT and TAIL",unaffected
same,time until level of GLUT4 at the PM reached steady state,"[8]; in the presence of 200 nM insulin, after transfer from ice to 37° C.",approximately 5 min
same,HA-GLUT4 expressed in the cell that did not translocate to the membrane during the experiment,"[3]; 200 nM insulin, up to 180 min",approximately 30%
same,"HA-GLUT4 labeled by anti-HA antibody uptake, percentage of total post-fixation labeling","[3]; 200 nM insulin, up to 180 min, FIG. 6A",approximately 30%
same,size of the recycling pool of GLUT4,"[3]; different doses of insulin, FIG. 8",incrementally increased with increasing doses
